What was measured:
[1] = system: cytokines induced in mice by LPS; test: Mouse LPS cytokine model, Example 6A Study 3, 1:1 CBD:CBDA in MCT oil; format: in vivo; conditions: 0.5 mg/kg
Method: (§1) A series of experiments using a mouse LPS cytokine animal model were performed. In the mouse LPS cytokine animal model, mice were injected with LPS, which induced the immune response shortly after the mice were injected with one of the potential anti-inflammatory compounds under evaluation (the “test compound”). The efficacy of the test compound was evaluated based on its ability to reduce expression levels of inflammatory cytokines that were elevated due to the immune response. The test compounds included a cannabinoid, an omega fatty acid, and a cannabinoid-omega fatty acid composition.
(§2) The mice were intraperitoneally injected with 0.1 mL of the test compound. One hour later, the mice were intraperitoneally injected with 0.1 mL of LPS in phosphate buffered saline (PBS). Four hours later, a heart puncture was performed and the blood was allowed to clot to generate serum. 0.1 mL of the serum was diluted 1:2 with PBS and stored at −80° C. The serum was then sent to a laboratory where a mouse cytokine array/chemokine array 31-plex (MD31) analysis was performed that analyzed the expression levels of the 32 cytokines/chemokines listed in Table 9, above.
(§3) For each considered test compound, the ability of the test compound to suppress each inflammatory cytokine was calculated by determining the percent suppression.
(§4) 32 female C57BL/6 mice that weighed approximately 20 g each were allowed to acclimate for one week with unlimited access to food and water. On the day of the study, the mice were weighed and split into eight groups of four mice each so that the average weight of each group was as close as possible to each other.
The 1:1 CBD:CBDA test compounds were dosed at 5 mg/kg or 0.1 mg per 20 g mouse, 1.67 mg/kg or 0.033 mg per 20 g mouse, 0.5 mg/kg or 0.01 mg per 20 g mouse, 0.167 mg/kg or 0.0033 mg per 20 g mouse and 0.05 mg/kg or 0.001 mg per 20 g mouse. The test compounds were prepared as 1 mg/mL, 0.33 mg/mL, 0.1 mg/mL, 0.033 mg/mL and 0.01 mg/mL solutions in MCT oil for a 0.1 mL injection. […] The LPS was dosed at 0.1 mg/kg or 0.002 mg per 20 g mouse. The LPS was prepared as a 0.02 mg/mL solution in PBS for a 0.1 mL injection.

[2] = system: cytokines induced in mice by LPS; test: Mouse LPS cytokine model, Example 6C Study 1, omega fatty acids with or without 0.5 mg/kg 1:1 CBD:CBDA; format: in vivo; conditions: 0.5 mg/kg (0.01 mg per mouse)
Method: as §1, §2, §3
In this study, the effects of combining 1:1 CBD:CBDA with anti-inflammatory omega unsaturated fatty acids using the mouse LPS cytokine animal model were examined.
as §4
Because the purpose of this experiment was to evaluate the effectiveness of combining 1:1 CBD:CBDA and the anti-inflammatory omega fatty acids, only cytokines that could be suppressed by one of the anti-inflammatory agents used in this study were considered.

[3] = system: cytokine levels in differentiated THP-1 cells treated with LPS; test: THP-1 human cellular LPS cytokine assay, four independent experiments, per cytokine; format: cell-based; conditions: LPS 20 ng/mL

## C[C@@H]1C[C@H]2[C@@H]3CCC4=CC(=O)C=C[C@]4(C)[C@@]3(F)[C@@H](O)C[C@]2(C)[C@@]1(O)C(=O)CO [Dexamethasone, dexamethasone]
[1]
  AVERAGE SUPPRESSION: 34.65%
  Eotaxin suppression: 55.51%
  IFNγ suppression: 14.14%
  IL-1β suppression: 61.12%
  IL-2 suppression: −15.63%
  IL-6 suppression: 78.65%
  IL-7 suppression: 12.53%
  IL-9 suppression: 5.23%
  IL-10 suppression: 46.83%
  IL-12 p70 suppression: −46.46%
  IL-12β p40 suppression: 29.69%
  IL-13 suppression: 21.00%
  IL-17 suppression: 53.81%
  IP-10 suppression: 38.48%
  KC suppression: 86.96%
  LIF suppression: 35.14%
  MCP-1 suppression: 69.72%
  MIG suppression: 37.08%
  MIP-1α suppression: 48.38%
  MIP-1β suppression: 32.24%
  MIP-2 suppression: 41.28%
  RANTES suppression: 32.46%
  TNF-α suppression: 53.09%
  VEGF suppression: 66.07%
[2]
  AVERAGE SUPPRESSION: 20.66%
  IFNγ suppression: −41.63%
  IL-1β suppression: 19.75%
  IL-6 suppression: 64.76%
  IL-10 suppression: 19.59%
  IL-12 p70 suppression: 10.64%
  IL-12β p40 suppression: 39.02%
  IL-15 suppression: 26.30%
  IL-17 suppression: 49.77%
  IP-10 suppression: 24.44%
  KC suppression: 40.63%
  LIF suppression: 29.55%
  MCP-1 suppression: 26.32%
  MIG suppression: 3.78%
  MIP-1α suppression: 26.86%
  MIP-1β suppression: 5.51%
  MIP-2 suppression: 34.16%
  RANTES suppression: −13.70%
  TNF-α suppression: 26.92%
[3]; 2 µM
  EGF suppression: 0.74%
  FGF-β suppression: −18.23%
  Flt-3L suppression: 57.45%
  IFNγ suppression: 56.19%
  IL-1α suppression: 77.5%
  IL-1β suppression: 67.84%
  IL-4 suppression: 56.32%
  IL-6 suppression: 90.56%
  IL-7 suppression: 64.36%
  IL-10 suppression: 74.07%
  IL-12 p70 suppression: 1.37%
  IL-15 suppression: 29.2%
  IL-18 suppression: −15.38%
  IP-10 suppression: 64.85%
  MCP-1 suppression: 83.18%
  MIP-1β suppression: 73.58%
  TNFα suppression: 45.33%
  TNFβ suppression: 72.69%
[3]
  Average cytokine suppression: 50.17%
